Data published in patent publication US12595239B2, “Substituted isoxazoline derivatives” (BASF SE, priority 2021, dated 2026).

Columns and labels:
Assay type in all cases: in vivo
Plutella xylostella = assay: B.6 Diamond Back Moth, cabbage leaf disc dip test; settings: foliar, 3rd instar larvae, 72 hours after treatment, read-out: mortality in comparison with untreated controls
Description: The active compound was dissolved at the desired concentration in a mixture of 1:1 (vol:vol) distilled water:acetone. Surfactant (Kinetic) was added at a rate of 0.01% (vol/vol). The test solution was prepared at the day of use. Cabbage leaf discs (60 mm in diameter) were dipped in test solution and air-dried. Treated leaves were placed in petri dishes lined with moistened filter paper and inoculated with ten 3rd instar larvae. Mortality was recorded 72 hours after treatment. Feeding damages were also recorded using a scale of 0-100%.

Dichromothrips corbetti = assay: B.7 Orchid Thrips, floral-immersion test; settings: adult thrips, 72 hours after treatment, read-out: mortality in comparison with untreated controls
Description: Dichromothrips corbetti adults used for bioassay were obtained from a colony maintained continuously under laboratory conditions. For testing purposes, the test compound was diluted in a 1:1 mixture of acetone:water (vol:vol), plus Kinetic at a rate of 0.01% v/v.
Thrips potency of each compound was evaluated by using a floral-immersion technique. Each orchid petal was dipped into treatment solution and allowed to dry in Petri dishes. Treated petals were placed into individual re-sealable plastic along with about 20 adult thrips. All test arenas were held under dark condition and a temperature of about 28° C. for duration of the assay. The percent mortality was recorded 72 hours after treatment.

Nezara viridula = assay: B.8 Green Soldier Stink Bug, soybean pod spray test; settings: 120 h, late 3rd instar, after 5 days, read-out: mortality in comparison with untreated controls
Description: The active compound was dissolved at the desired concentration in a mixture of 1:1 (vol:vol) distilled water:aceteone. Surfactant (Kinetic) was added at a rate of 0.01% (vol/vol). The test solution was prepared at the day of use. Soybean pods were placed in 90×50 mm glass Petri dishes lined with moistened filter paper and inoculated with ten late 3rd instar N. viridula. Using a hand atomizer, an approximately 2 ml solution was sprayed into each Petri dish. Treated setup was kept at about 25-26° C. and relative humidity of about 65-70%. Percent mortality was recorded after 5 days.

Tetranychus kanzawai = assay: B.10 Red Spider Mite, cowpea bean spray test; settings: 72 hours after treatment, read-out: mortality in comparison with untreated controls
Description: The active compound was dissolved at the desired concentration in a mixture of 1:1 (vol:vol) distilled water:acetone. Add surfactant (Kinetic) was added at a rate of 0.01% (vol/vol). The test solution was prepared at the day of use. Potted cowpea beans of 4-5 days of age were cleaned with tap water and sprayed with I-2 ml of the test solution using air driven DeVilbiss® hand atomizer at 20-30 psi (≈1,38 to 2,07 bar). The treated plants were allowed to air dry and afterwards inoculated with 30 or more mites by clipping a cassava leaf section from rearing population. Treated plants were placed inside a holding room at about 25-26° C. and about 65-70% relative humidity. Percent mortality was assessed 72 hours after treatment.

Spodoptera eridania = assay: B.11 Southern Armyworm 2nd instar larvae, lima bean foliar spray test; settings: 96 h, 4 days after treatment, read-out: mortality in comparison with untreated controls
Description: The active compounds were formulated by a Tecan liquid handler in 100% cyclohexanone as a 10′000 ppm solution supplied in tubes. The 10′000 ppm solution was serially diluted in 100% cyclohexanone to make interim solutions. These served as stock solutions for which final dilutions were made by the Tecan in 50% acetone:50% water (v/v) into 10 or 20 ml glass vials. A nonionic surfactant (Kinetic®) was included in the solution at a volume of 0.01% (v/v). The vials were then inserted into an automated electrostatic sprayer equipped with an atomizing nozzle for application to plants/insects. Lima bean plants (variety Sieva) were grown 2 plants to a pot and selected for treatment at the 1st true leaf stage. Test solutions were sprayed onto the foliage by an automated electrostatic plant sprayer equipped with an atomizing spray nozzle. The plants were dried in the sprayer fume hood and then removed from the sprayer. Each pot was placed into perforated plastic bags with a zip closure. Ten to 11 armyworm larvae were placed into the bag and the bags zipped closed. Test plants were maintained in a growth room at about 25° C. and about 20-40% relative humidity for 4 days, avoiding direct exposure to fluorescent light (14:10 light:dark photo-period) to prevent trapping of heat inside the bags. Mortality and reduced feeding were assessed 4 days after treatment, compared to untreated control plants.

Bemisia argentifolii = assay: B.12 Silverleaf Whitefly (adults), cotton plant spray test; settings: 72 h, 3 days after treatment, read-out: mortality in comparison with untreated controls
Description: The active compounds were formulated by a Tecan liquid handler in 100% cyclohexanone as a 10,000-ppm solution supplied in tubes. The 10,000-ppm solution was serially diluted in 100% cyclohexanone to make interim solutions. These served as stock solutions for which final dilutions were made by the Tecan in 50% acetone:50% water (v/v) into 5 or 10 ml glass vials. A nonionic surfactant (Kinetic®) was included in the solution at a volume of 0.01% (v/v). The vials were then inserted into an automated electrostatic sprayer equipped with an atomizing nozzle for application to plants/insects. Cotton plants at the cotyledon stage (one plant per pot) were sprayed by an automated electrostatic plant sprayer equipped with an atomizing spray nozzle. The plants were dried in the sprayer fume hood and then removed from the sprayer. Each pot was placed into a plastic cup and about 10 to 12 whitefly adults (approximately 3-5 days old) were introduced. The insects were collected using an aspirator and a nontoxic Tygon® tubing connected to a barrier pipette tip. The tip, containing the collected insects, was then gently inserted into the soil containing the treated plant, allowing insects to crawl out of the tip to reach the foliage for feeding. Cups were covered with a reusable screened lid. Test plants were maintained in a growth room at about 25° C. and about 20-40% relative humidity for 3 days, avoiding direct exposure to fluorescent light (14:10 light:dark photoperiod) to prevent trapping of heat inside the cup. Mortality was assessed 3 days after treatment, compared to untreated control plants.

[1] = test system: Trialeurodes vaporarirorum; assay: B.2 Greenhouse Whitefly, microtiter plate eggplant leaf disk test; settings: foliar, 144 h, mortality of hatched crawlers, 6 days, read-out: mortality in comparison with untreated controls
Description: For evaluating control of Greenhouse Whitefly, the test unit consisted of 96-well-microtiter plates containing a leaf disk of eggplant leaf disk with Whitefly eggs. The compounds or mixtures were formulated using a solution containing 75% water and 25% DMSO. Different concentrations of formulated were sprayed onto the insect diet at 2.5 μl, using a custom-built micro atomizer, at two replications. After application, microtiter plates were incubated at 23±1° C., 65±5% RH for 6 days. Mortality of hatched crawlers was then visually assessed.

Anthonomus grandis = assay: B.1 Boll weevil (Anthonomus grandis), 96-well microtiter plate diet test; settings: 120 h, egg and larval mortality, 5 days, read-out: mortality in comparison with untreated controls
Description: For evaluating control of boll weevil, the test unit consisted of 96-well-microtiter plates containing an insect diet and 5-10 A. grandis eggs.
The compounds were formulated using a solution containing 75% v/v water and 25% v/v DMSO. Different concentrations of formulated compounds were sprayed onto the insect diet at 5 μl, using a custom-built micro atomizer, at two replications.
After application, microtiter plates were incubated at about 25±1° C. and about 75±5% relative humidity for 5 days. Egg and larval mortality were then visually assessed.

Myzus persicae = assay: B.3 Green Peach Aphid (mixed life stages), systemic artificial diet test; settings: 72 h, treated aphid diet, 3 days, read-out: mortality in comparison with untreated controls
Source text: For evaluating control of Green Peach Aphid through systemic means the test unit consisted of 96-well-microtiter plates containing liquid artificial diet under an artificial membrane. The compounds were formulated using a solution containing 75% v/v water and 25% v/v DMSO. Different concentrations of formulated compounds were pipetted into the aphid diet, using a custom-built pipette, at two replications. After application, 5-8 adult aphids were placed on the artificial membrane inside the microtiter plate wells. The aphids were then allowed to suck on the treated aphid diet and incubated at about 23±1° C. and about 50±5% relative humidity for 3 days. Aphid mortality and fecundity was then visually assessed.

Heliothis virescens = assay: B.4 Tobacco Budworm, microtiter plate diet test; settings: 120 h, egg and larval mortality, 5 days, read-out: mortality in comparison with untreated controls
Description: For evaluating control of Tobacco Budworm, the test unit consisted of 96-well-microtiter plates containing an insect diet and 15-25 H. virescens eggs. The compounds were formulated using a solution containing 75% v/v water and 25% v/v DMSO. Different concentrations of formulated compounds were sprayed onto the insect diet at 10 μl, using a custom-built micro atomizer, at two replications. After application, microtiter plates were incubated at about 28±1° C. and about 80±5% relative humidity for 5 days. Egg and larval mortality was then visually assessed.

Aedes aegypti = assay: whole plant or invertebrate; settings: 48 h, larval mortality, 2 days, read-out: mortality in comparison with untreated controls
Description: For evaluating control of Yellow Fever Mosquito, the test unit consisted of 96-well-microtiter plates containing 200 μl of tap water per well and 5-15 freshly hatched A. aegypti larvae. The active compounds were formulated using a solution containing 75% (v/v) water and 25% (v/v) DMSO. Different concentrations of formulated compounds or mixtures were sprayed onto the insect diet at 2.5 μl, using a custom-built micro atomizer, at two replications.
After application, microtiter plates were incubated at 28±1° C., 80±5% RH for 2 days. Larval mortality was then visually assessed.

Nephotettix virescens = assay: B.9 Rice Green Leafhopper, rice seedling spray test; settings: adults, after 72 hours, read-out: mortality in comparison with untreated controls
Description: Four to five-week old rice seedlings with cut upper leaf portion were cleaned and washed 24 hours before spraying. The active compounds were formulated in 1:1 acetone:water (vol:vol), and 0.01% vol/vol surfactant (Kinetic) was added. Potted rice seedlings were sprayed with 5-6 ml test solution, air dried, covered with Mylar cages and inoculated with 10 adults. Treated rice plants were kept at about 28-29° C. and relative humidity of about 50-60%. Percent mortality was recorded after 72 hours.

CCOC(=O)N(C1=NOC(c2cc(Cl)cc(Cl)c2)(C(F)(F)F)C1)c1ccc(Cl)c(C(=O)NC2(C#N)CC2)c1 (stereo not shown) [I-111, ethyl N-[4-chloro-3-[(1-cyanocyclopropyl)carbamoyl]phenyl]-N-[5-(3,5-dichlorophenyl)-5-(trifluoromethyl)-4H-isoxazol-3-yl]carbamate]
≥ 75%: mortality at 300 ppm (Plutella xylostella) | mortality at 300 ppm (Dichromothrips corbetti) | mortality at 300 ppm (Nezara viridula) | mortality at 300 ppm (Tetranychus kanzawai) | mortality at 300 ppm (Spodoptera eridania) | mortality at 300 ppm (Bemisia argentifolii)

O=C(Nc1ccc(F)cc1F)c1cc(NC2=NOC(c3cccc(C(F)(F)F)c3)(C(F)(F)F)C2)ccc1Cl (stereo not shown) [I-38, 2-chloro-N-(2,4-difluorophenyl)-5-[[5-(trifluoromethyl)-5-[3-(trifluoromethyl)phenyl]-4H-isoxazol-3-yl]amino]benzamide]
≥ 75%: mortality at 2500 ppm [1] | mortality at 300 ppm (Plutella xylostella) | mortality at 300 ppm (Dichromothrips corbetti) | mortality at 300 ppm (Nezara viridula) | mortality at 300 ppm (Spodoptera eridania)

Nc1c(F)ccc(NC(=O)c2cc(NC3=NOC(c4cc(Cl)cc(Cl)c4)(C(F)(F)F)C3)ccc2Cl)c1F (stereo not shown) [I-4, N-(3-amino-2,4-difluoro-phenyl)-2-chloro-5-[[5-(3,5-dichlorophenyl)-5-(trifluoromethyl)-4H-isoxazol-3-yl]amino]benzamide]
≥ 75%: mortality at 2500 ppm (Anthonomus grandis) | mortality at 2500 ppm (Myzus persicae) | mortality at 2500 ppm (Heliothis virescens) | mortality at 2500 ppm (Aedes aegypti) | mortality at 300 ppm (Plutella xylostella) | mortality at 300 ppm (Dichromothrips corbetti) | mortality at 300 ppm (Nezara viridula)

CCN1OC[C@@H](NC(=O)c2cc(N(C)C3=NOC(c4cc(Cl)c(F)c(Cl)c4)(C(F)(F)F)C3)ccc2Cl)C1=O (stereo partly drawn) [I-119, 2-chloro-5-[[5-(3,5-dichloro-4-fluoro-phenyl)-5-(trifluoromethyl)-4H-isoxazol-3-yl]-methyl-amino]-N-[(4R)-2-ethyl-3-oxo-isoxazolidin-4-yl]benzamide]
≥ 75%: mortality at 300 ppm (Plutella xylostella) | mortality at 300 ppm (Dichromothrips corbetti) | mortality at 300 ppm (Nezara viridula) | mortality at 300 ppm (Nephotettix virescens)

O=C(NC1C[S+]([O-])C1)c1cc(NC2=NOC(c3cc(Cl)c(F)c(Cl)c3)(C(F)(F)F)C2)ccc1Cl (stereo not shown) [I-61, 2-chloro-5-[[5-(3,5-dichloro-4-fluoro-phenyl)-5-(trifluoromethyl)-4H-isoxazol-3-yl]amino]-N-(1-oxothietan-3-yl)benzamide]
≥ 75%: mortality at 300 ppm (Plutella xylostella) | mortality at 300 ppm (Dichromothrips corbetti) | mortality at 300 ppm (Tetranychus kanzawai) | mortality at 300 ppm (Spodoptera eridania)

N#CC1(NC(=O)c2cc(N(CC3CC3)C3=NOC(c4cc(Cl)cc(Cl)c4)(C(F)(F)F)C3)ccc2Cl)CC1 (stereo not shown) [I-60, 2-chloro-N-(1-cyanocyclopropyl)-5-[cyclopropylmethyl-[5-(3,5-dichlorophenyl)-5-(trifluoromethyl)-4H-isoxazol-3-yl]amino]benzamide]
≥ 75%: mortality at 300 ppm (Plutella xylostella) | mortality at 300 ppm (Dichromothrips corbetti) | mortality at 300 ppm (Nezara viridula) | mortality at 300 ppm (Nephotettix virescens) | mortality at 300 ppm (Spodoptera eridania)
